Data taken from US20260297105A1, “RAF-MEK PROTEIN COMPLEX MODULATORS AND METHODS OF USE THEREOF” (GANDEEVA THERAPEUTICS, INC., priority 2023, published 2026).
pEC50, pIC50: −log10 of the molar value. Like-named read-outs stand apart in the source and are kept apart here.

Tests used:
BRAF-MEK1 = assay: BRAF-MEK TR-FRET assay, stabilization of MEK1 and BRAF interaction; format: binding; details: 4 nM BRAF, 10 nM MEK, 100 μM ATP, 1 hr at 25° C., read-out: BRAF-MEK TR-FRET Assay (EC50, fold stabilization)
From the text: (§1) Protein expression and purification: BRAF (445-723) with N-term His-tag and C-term StrepII tag was expressed using the Expi293 system (ThermoFisher) and purified using Strep-Tactin® XT-Superflow (IBA) chromatography. ERK1 (full-length) with N-term His-tag was expressed in Rosetta DE3 cells (Millipore) and purified using HisTrap HP (Cytiva) and Superdex 200 (Cytiva) column chromatography. Full-length MEK1 for TR-FRET assays with N-term His-tag was expressed in BL21DE3 cells (ThermoFisher) and purified using HisTrap HP (Cytiva) and Superdex 200 (Cytiva) column chromatography.
Efficacy of exemplary compounds in stabilization of MEK1 and BRAF interaction: Compound stabilization of BRAF-MEK interaction was evaluated using TR-FRET (Time Resolved Fluorescence Energy Transfer). The FRET assay consisted of His-tagged MEK1 (produced in-house), GST-tagged BRAF (SignalChem, B08-11G), Anti His-Tb Cryptate donor, and Anti GST-XL665 acceptor fluorophores (PerkinElmer) to generate FRET signal upon BRAF-MEK1 binding. Compounds were prepared from DMSO stocks in assay buffer (50 mM Tris pH 7.5, 150 mM NaCl, 1 mM DTT, 0.05% Tween-20, 5 mM MgCl2, and 100 μM ATP) and incubated with 4 nM BRAF and 10 nM MEK for 1 hr at 25° C. 1 ng Anti His-Tb Cryptate/20 ng Anti GST-XL665 premix was then added and incubated for 1 hr at 25° C. TR-FRET was measured using Cytation5 microplate reader (Agilent) using Ex/Em=340/620 nm and Ex/Em=340/665 nm to determine the FRET ratio. Fold stabilization was calculated as FRET signal of treated well/DMSO control. Fold stabilization as a function of compound concentration from 2 replicate wells was fit with a 4-parameter logistic curve equation using GraphPad Prism or CDD Vault to derive EC50 values.
(§2) In this table, for the BRAF ADP Glo kinase assay, “A” indicates IC50 of less than 5 nM; “B” indicates IC50 of between 5 nM to 50 nM; and “C” indicates IC50 of between 50 nM to 500 nM. “D” indicates IC50 of greater than 500 nM. For the BRAF-MEK TR-FRET assay, “A” indicates EC50 of less than 50 nM; “B” indicates EC50 of between 50 nM to 200 nM; and “C” indicates EC50 of between 200 nM to 1 μM. “D′” indicates EC50 of greater than 1 μM. For the AlphaLisa P-ERK assay, “A” indicates IC50 of less than 1 nM; “B” indicates IC50 of between 1 nM to 10 nM; and “C” indicates IC50 of between 10 nM to 100 nM. “D” indicates IC50 of greater than 100 nM. For the cell viability assay, “A” indicates IC50 of less than 1 nM; “B” indicates IC50 of between 1 nM to 10 nM; and “C” indicates IC50 of between 10 nM to 100 nM. “D” indicates IC50 of greater than 100 nM.

MEK1 = target: T1, MEK1 (Homo sapiens, UniProt Q02750); assay: MEK1 kinase cascade assay (ADP-Glo), inhibition of MEK1 kinase activity; format: biochemical; details: 25 nM BRAF, 6.25 nM MEK1, 0.5 μM ERK, 1 mM ATP; 20 min preincubation, 1 hr at 25° C.; read-out: BRAF ADP Glo kinase assay V3 (IC50)
T1 construct: purchased SignalChem M02-14H
From the text: as §1
Efficacy of exemplary compounds in inhibition of MEK1 kinase activity: The effect of compound MEK1 inhibition was evaluated using an ADP detection system for kinases, such as the ADP-Glo assay (Promega). The MEK1 kinase cascade assay consisted of 9 μL reaction volumes in 384-well white, opaque Optiplates (PerkinElmer). Compounds were prepared from DMSO stocks in assay buffer (10 mM HEPES pH 7.5, 5 mM MgCl2, 2 mM CHAPS, and 1 mM DTT) and preincubated with 25 nM BRAF for 20 mins at 25° C. prior to addition of 6.25 nM MEK1/0.5 μM ERK/1 mM ATP premix to initiate the kinase reaction. Both BRAF and ERK1 were produced in-house, and MEK1 was purchased from SignalChem (M02-14H). DMSO was kept constant at a final concentration of 1%. After a 1 hr incubation at 25° C., conversion of ATP to ADP was detected using ADP-Glo™ reagents according to the manufacturer's protocol. Luminescence was measured using a CLARIOstar microplate reader (BMG). Percent (%) Inhibition was calculated by normalizing to DMSO control (max) and 1 μM Trametinib (min). % inhibition as a function of compound concentration from 2 replicate wells was fit with a 4-parameter logistic curve equation using GraphPad Prism or CDD Vault to derive IC50 values.
as §2

T1 sequence (Q02750 whole entry): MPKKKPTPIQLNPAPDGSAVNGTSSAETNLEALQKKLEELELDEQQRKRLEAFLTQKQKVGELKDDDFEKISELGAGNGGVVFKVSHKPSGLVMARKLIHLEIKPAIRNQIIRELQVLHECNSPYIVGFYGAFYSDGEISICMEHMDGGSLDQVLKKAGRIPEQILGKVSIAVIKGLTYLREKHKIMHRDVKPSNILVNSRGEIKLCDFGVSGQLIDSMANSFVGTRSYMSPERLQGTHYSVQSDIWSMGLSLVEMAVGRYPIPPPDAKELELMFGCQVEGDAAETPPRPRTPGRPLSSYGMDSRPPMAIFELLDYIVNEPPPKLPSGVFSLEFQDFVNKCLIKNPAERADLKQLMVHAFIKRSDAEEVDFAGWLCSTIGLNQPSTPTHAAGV
T1 sequence (P15056 445-723 partner limits assumed): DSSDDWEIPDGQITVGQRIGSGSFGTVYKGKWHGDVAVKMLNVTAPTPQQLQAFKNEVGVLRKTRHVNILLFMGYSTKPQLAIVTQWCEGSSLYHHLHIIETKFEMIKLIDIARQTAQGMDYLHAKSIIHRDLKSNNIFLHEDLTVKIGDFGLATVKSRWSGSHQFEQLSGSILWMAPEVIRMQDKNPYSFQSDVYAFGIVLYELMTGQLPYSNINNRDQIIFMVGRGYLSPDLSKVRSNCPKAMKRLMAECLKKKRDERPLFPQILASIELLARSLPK

SMILES	pEC50 (BRAF-MEK1)	pIC50 (MEK1)	pEC50 (BRAF-MEK1; 60 min)
O=C1Oc2cc(Oc3cccnn3)ccc2C2(CCC2)N1Cc1ccnc(NS(=O)(=O)C2CC2)c1F [Compound 163, (cyclopropylsulfonyl)[3-fluoro-4-({2-oxo-7-(3-pyridazinyloxy)-2H,3H-spiro[1,3-benzoxazine-4,1′-cyclobutan]-3-yl}methyl)-2-pyridyl]amine]	6.00 to 6.70	–	–
CN(C)C(=O)Oc1ccc2c(c1)OC(=O)N(Cc1cccc(NS(=O)(=O)N3CCOCC3)c1F)C2 [Compound 110, 3-(2-fluoro-3-(morpholine-4-sulfonamido)benzyl)-2-oxo-3,4-dihydro-2H-benzo[e][1,3]oxazin-7-yl dimethylcarbamate]	6.00 to 6.70	7.30 to 8.30	–
CNS(=O)(=O)Nc1nccc(CN2C(=O)Oc3c(ccc(Oc4cccnn4)c3F)C23CCC3)c1F [Compound 174, 8-fluoro-3-{[3-fluoro-2-(methylaminosulfonylamino)-4-pyridyl]methyl}-7-(3-pyridazinyloxy)-2H,3H-spiro[1,3-benzoxazine-4,1′-cyclobutan]-2-one]	> 7.30	7.30 to 8.30	–
CNS(=O)(=O)Nc1cccc(CN2C(=O)Oc3cc(OC(=O)N(C)C)ccc3[C@@H]2C)c1F [Compound 152, 3-(2-fluoro-3-((N-methylsulfamoyl)amino)benzyl)-4-methyl-2-oxo-3,4-dihydro-2H-benzo[e][1,3]oxazin-7-yl dimethylcarbamate]	6.00 to 6.70	7.30 to 8.30	–
CNS(=O)(=O)Nc1nccc(CN2C(=O)Oc3cc(Oc4cccnn4)cnc3C23CC3)c1F [Compound 202, 2′-{[3-fluoro-2-(methylaminosulfonylamino)-4-pyridyl]methyl}-6′-(3-pyridazinyloxy)-2′H,3′H-4′-oxa-2′,8′-diazaspiro[cyclopropane-1,1′-naphthalen]-3′-one]	> 7.30	> 8.30	–
CN(C)S(=O)(=O)Nc1cccc(CN2Cc3ccc(Oc4cccnn4)cc3OC2=O)c1F [Compound 37, 3-{[3-(dimethylaminosulfonylamino)-2-fluorophenyl]methyl}-7-(3-pyridazinyloxy)-3,4-dihydro-2H-1,3-benzoxazin-2-one]	6.70 to 7.30	7.30 to 8.30	–
COC1CCN(S(=O)(=O)Nc2cccc(CN3Cc4ccc(OC(=O)N(C)C)cc4OC3=O)c2F)C1 (stereo not drawn) [Compound 100, 3-(2-fluoro-3-((3-methoxypyrrolidine)-1-sulfonamido)benzyl)-2-oxo-3,4-dihydro-2H-benzo[e][1,3]oxazin-7-yl dimethylcarbamate]	6.00 to 6.70	7.30 to 8.30	–
CNS(=O)(=O)Nc1nccc(CN2C(=O)Oc3cc(Oc4nccnn4)cnc3[C@@H]2C)c1F (stereo in doubt) [Compound 199, 3-{[3-fluoro-2-(methylaminosulfonylamino)-4-pyridyl]methyl}-4-methyl-7-(1,2,4-triazin-3-yloxy)-3,4-dihydro-2H-1-oxa-3,5-diazanaphthalen-2-one]	–	–	6.70 to 7.30
CNS(=O)(=O)Nc1nccc(CN2C(=O)Oc3cc(Oc4ncccn4)ccc3C23CCC3)c1F [Compound 160, 3-{[3-fluoro-2-(methylaminosulfonylamino)-4-pyridyl]methyl}-7-(2-pyrimidinyloxy)-2H,3H-spiro[1,3-benzoxazine-4,1′-cyclobutan]-2-one]	6.00 to 6.70	–	–
CNS(=O)(=O)Nc1nccc(CN2C(=O)Oc3cc(Oc4cccnn4)cnc3[C@H]2C)c1F (stereo in doubt) [Compound 193, 3-{[3-fluoro-2-(methylaminosulfonylamino)-4 pyridyl]methyl}-4-methyl-7-(3-pyridazinyloxy)-3,4-dihydro-2H-1-oxa-3,5 diazanaphthalen-2-one]	–	–	> 7.30
CNS(=O)(=O)Nc1cccc(CN2Cc3cc(Cl)c(OC(=O)C(C)C)cc3OC2=O)c1F [Compound 129, 6-chloro-3-(2-fluoro-3-((N-methylsulfamoyl)amino)benzyl)-2-oxo-3,4-dihydro-2H-benzo[e][1,3]oxazin-7-yl isobutyrate]	6.00 to 6.70	–	–
CNS(=O)(=O)Nc1cccc(CN2Cc3cc(Cl)c(OC(=O)C4CC4)cc3OC2=O)c1F [Compound 130, 6-chloro-3-(2-fluoro-3-((N-methylsulfamoyl)amino)benzyl)-2-oxo-3,4-dihydro-2H-benzo[e][1,3]oxazin-7-yl cyclopropanecarboxylate]	6.70 to 7.30	–	–
CNS(=O)(=O)Nc1cccc(CN2C(=O)Oc3c(ccc(Oc4ncco4)c3F)[C@H]2C)c1F (single isomer, unassigned) [Compound 90, (R)-8-fluoro-3-({2-fluoro-3-(methylsulfamoyl)amino]phenyl}methyl)-4-methyl-7-(1,3-oxazol-2-yloxy)-3,4-dihydro-2H-1,3-benzoxazin-2-one or (S)-8-fluoro-3-({2-fluoro-3-(methylsulfamoyl)amino]phenyl}methyl)-4-methyl-7-(1,3-oxazol-2-yloxy)-3,4-dihydro-2H-1,3-benzoxazin-2-one]	–	7.30 to 8.30	–
CNS(=O)(=O)Nc1nccc(CN2C(=O)Oc3cc(Oc4nc(C)co4)ccc3C23CCC3)c1F [Compound 182, 3-{[3-fluoro-2-(methylaminosulfonylamino)-4-pyridyl]methyl}-7-(4-methyl-1,3-oxazol-2-yloxy)-2H,3H-spiro[1,3-benzoxazine-4,1′-cyclobutan]-2-one]	–	7.30 to 8.30	–
CNS(=O)(=O)Nc1cccc(CN2C(=O)Oc3cc(Oc4ncco4)cc(F)c3[C@H]2C)c1F (single isomer, unassigned) [Compound 87, (R)-5-fluoro-3-({2-fluoro-3-(methylsulfamoyl)amino]phenyl}methyl)-4-methyl-7-(1,3-oxazol-2-yloxy)-3,4-dihydro-2H-1,3-benzoxazin-2-one or (S)-5-fluoro-3-({2-fluoro-3-(methylsulfamoyl)amino]phenyl}methyl)-4-methyl-7-(1,3-oxazol-2-yloxy)-3,4-dihydro-2H-1,3-benzoxazin-2-one]	–	6.30 to 7.30	–
CNS(=O)(=O)Cc1cccc(CN2Cc3ccc(OC(=O)N(C)C)cc3OC2=O)c1F [Compound 45, 3-(2-fluoro-3-((N-methylsulfamoyl)methyl)benzyl)-2-oxo-3,4-dihydro-2H-benzo[e][1,3]oxazin-7-yl dimethylcarbamate]	–	< 6.30	–
CNS(=O)(=O)Nc1cccc(CN2C(=O)Oc3cc(Oc4ncco4)cnc3[C@H]2C)c1F (stereo in doubt) [Compound 189, 3-{[2-fluoro-3-(methylaminosulfonylamino)phenyl]methyl}-4-methyl-7-(1,3-oxazol-2-yloxy)-3,4-dihydro-2H-1-oxa-3,5-diazanaphthalen-2-one]	–	6.30 to 7.30	–
CNS(=O)(=O)Nc1cccc(CN2Cc3ccc(OC(=O)C4CC4)cc3OC2=O)c1F [Compound 147, 3-(2-fluoro-3-((N-methylsulfamoyl)amino)benzyl)-2-oxo-3,4-dihydro-2H-benzo[e][1,3]oxazin-7-yl cyclopropanecarboxylate]	6.70 to 7.30	–	–
